# Several values for one entry are separate records, joined by “and”; a condition that tells them apart may be missing. Equal values may be shown once. Read-outs that look alike come from different tables or passages of the source.
# What was measured:
# [1] = Pharmacokinetics after a single oral dose in Syrian hamsters (serum, HPLC-MS/MS); format: in vivo; conditions: for C(24 h): mean concentration at 24 h; for Cmax / AUC / Tmax / half-life: po
# From the text: Zapnometinib was synthesized by Chemcon GmbH (Freiburg, Germany). Before administration to Syrian hamsters, it was freshly dissolved in dimethyl sulfoxide (DMSO) (Carl Roth GmbH, Karlsruhe, Germany) and then further dissolved in 15% Kolliphor EL (Sigma-Aldrich, Germany) and 80% phosphate-buffered saline (PBS) (Gibco, Life Technology Europe B.V., Bleiswijk, the Netherlands). Kolliphor EL is used to emulsify and solubilize oils and other water in-soluble substances, it has been used as a pharmaceutical solvent for numerous drugs and has proven in previous in vivo studies with zapnometinib. Zapnometinib was administered orally at the indicated doses in a volume of 500 μL/150 g body weight using a gavage needle.
# Drug administration and blood sampling in Syrian hamsters were performed by Viroclinics Xplore (Schaijk, the Netherlands) and are described in the sections “Drug administration” and “Sampling after inoculation”. Specifically, at different time points (0, 0.5, 1, 2, 4, 8, 12, and 24 h) after the administration of a single dose of zapnometinib (15, 30, or 60 mg/kg per oral (p.o.)), ~200 µL blood was collected retro-orbitally from three animals per time point per dose and alternating animals between time points (except at 24 h, n = 6 per group) under isoflurane anesthesia using a heparinized capillary tube containing a clot activator (Microvette 500 Z-Gel, Sarstedt). Serum was collected by centrifuging the tubes at 4000 x g for 10 min, aliquoted, and stored at < -70°C until pharmacokinetic analysis. Daily clinical observations included monitoring of signs such as ruffled fur, hunched back posture, accelerated breathing and lethargy, and the body weight was monitored before and 24 h post administration.
# Bioanalysis and pharmacokinetic evaluation were performed at Prolytic GmbH (Frankfurt, Germany). […] liquid chromatography tandem mass spectrometry (HPLC-MS/MS) was employed to determine the concentration of zapnometinib in hamster serum in accordance with the company’s SOPs. During the analytical phase, two batches were evaluated. The acceptance criteria for the calibration standards and quality control (QC) samples were fulfilled for both batches as per the company’s SOPs. […] In total, 81 study test samples were analyzed. The validity of the method during the analysis of the test samples was ensured by assaying QC samples with known concentrations of zapnometinib; zapnometinib 13C6 was used as the internal standard. The lower limit of quantification (LLOQ) of the method was determined to be 10 ng/mL for zapnometinib in undiluted serum. All serum concentrations falling below LLOQ were assigned a value of 0. ANALYST software was used to calculate the concentrations of the test and QC samples based on the corresponding calibration curves. The obtained mean serum concentrations were used for noncompartmental pharmacokinetic evaluation with Phoenix® WinNonLin software (Pharsight Corporation, Mountain View, CA, USA; version 8.1).
# [2] = tested on: cytokine and chemokine levels; assay: Cytokine and chemokine levels in SARS-CoV-2-infected Syrian hamsters (serum ELISA, lung RT-qPCR); format: in vivo; conditions: 4 dpi, between groups after infection and treatment
# Procedure: Eleven- to thirteen-week-old male Syrian hamsters (Janvier, France) with a body weight of 113-148 g were infected on day 0 intranasally with SARS-CoV-2 (1x10^3 median tissue culture infectious dose (TCID50) BetaCoV/Munich/BavPat1/2020) in a total volume of 0.1 mL PBS divided between the nostrils. Zapnometinib (100 mg/kg) was administered p.o. at 4 or 24 h p.i. and the animals in both groups were treated thereafter with 75 mg/kg zapnometinib once daily. The animals in the control group received vehicle (5% DMSO, 15% Kolliphor, 80% PBS) 4 h p.i. and thereafter once daily. Serum samples were collected from hamsters before infection (0 dpi) and at 4 dpi, and the levels of different cytokines and chemokines (IL1-β, TNF-α, IL-6, and IP-10) were analyzed by ELISA (Assay Genie, Ireland). […] Tetramethylbenzidine (TMB) substrate was added and the color change in the wells was used as readout for the ELISA. The optical density (OD) at 450 nm was read. Cytokine and chemokine concentrations were calculated following the manufacturer’s instructions for interpolating unknown concentrations from a standard curve.
# Supplementary Figure 3. […] A. Cytokine levels in serum samples collected at 0 dpi (before infection and treatment, bottom row) and 4 dpi (top row) from vehicle-treated and zapnometinib-treated Syrian hamsters from the efficacy study analyzed by ELISA are shown. […]
# [3] = tested on: cytokine and chemokine levels; assay: RESPIRE Phase 2 trial, cytokines/chemokines in hospitalized COVID-19 patients (MesoScale V-Plex); format: in vivo, human; conditions: vs placebo
# From the text: For standard of care treatment see Supplementary Table 5 .
# Vero E6 cells = conditions: Vero E6 24 h 5% FBS
# [4] = Syrian, hamster, serum, 15 mg/kg p.o. single dose
# [5] = Syrian, hamster, serum, 30 mg/kg p.o. single dose
# [6] = hamster, serum, 60 mg/kg p.o. single dose
# [7] = single doses of 15, 30 or 60 mg/kg p.o.
smiles,measurement,setting,value
O=C(O)c1ccc(F)c(F)c1Nc1ccc(I)cc1Cl [zapnometinib],C(24 h),[1]; 15 mg/kg p.o. single dose,0.26 µM
same,C(24 h),[1]; 30 mg/kg p.o. single dose,0.55 µM
same,Cmax,"[1]; Syrian, hamster, 15 mg/kg p.o. single dose, serum",85100 ng/mL and 34.8 µM
same,Cmax,"[1]; Syrian, hamster, 30 mg/kg p.o. single dose, serum",53.9 µM
same,concentration at 24 h,"[1]; Syrian, hamster, serum, oral, 60 mg/kg p.o. single dose, read-out: concentration of zapnometinib after 24 h",5320 ng/mL and 13 µM
same,AUC,[1]; [4],672 µg·h/mL
same,Tmax,[1]; [4],2 h
same,half-life,"[1]; Syrian, hamster, serum, 15 mg/kg p.o. single dose, read-out: T1/2 (converted)",2.74 h
same,AUC,[1]; [5],1230 µg·h/mL
same,Tmax,[1]; [5],2 h
same,half-life,"[1]; Syrian, hamster, serum, 30 mg/kg p.o. single dose, read-out: T1/2 (converted)",2.75 h
same,half-life,"[1]; Syrian, hamster, serum, all dose groups (15, 30, 60 mg/kg p.o.), read-out: apparent terminal half-life",2 to 3 h
same,Cmax,"[1]; hamster, 30 mg/kg p.o. single dose, serum",132 µg/mL
same,Cmax,"[1]; hamster, 60 mg/kg p.o. single dose, serum",242000 ng/mL and 99.2 µM
same,AUC,[1]; [6],2970 µg·h/mL
same,Tmax,[1]; [6],4 h
same,half-life,"[1]; hamster, serum, 60 mg/kg p.o. single dose, read-out: T1/2 (converted)",3.07 h
same,adverse events,[1]; [7],no adverse events were reported
same,tolerability,[1]; [7],well tolerated
same,cytokine and chemokine levels in serum (ELISA) and lung tissue (RT-qPCR),[2],no major differences
same,IL-8/CXCL-8 levels,[3]; up to day 30,slight but not statistically significant increase
same,TNF-α levels,[3]; up to day 30,no changes
same,MCP-1 levels,"[3]; up to day 30, 900 mg D1 then 600 mg daily D2-6, p = <0.0001",significant reduction
same,IL-6 levels,"[3]; up to day 30, p = 0.0017",significantly reduced
same,IFNγ levels,"[3]; up to day 30, p = <0.0001",significant reduction
same,MIP-1α levels,"[3]; up to day 30, p = <0.0001",significant reduction
same,%LDH release compared to maximum LDH release,Vero E6 cells; 0.39 µM,0.22%
same,%LDH release compared to maximum LDH release,Vero E6 cells; 0.78 µM,0.17%
same,%LDH release compared to maximum LDH release,Vero E6 cells; 1.56 µM,0.15%
same,%LDH release compared to maximum LDH release,Vero E6 cells; 3.13 µM,0.39%
same,%LDH release compared to maximum LDH release,Vero E6 cells; 6.25 µM,0.13%
same,%LDH release compared to maximum LDH release,Vero E6 cells; 12.50 µM,0.09%
same,%LDH release compared to maximum LDH release,Vero E6 cells; 25.00 µM,-0.04%
same,%LDH release compared to maximum LDH release,Vero E6 cells; 50.00 µM,0.02%
same,%LDH release compared to maximum LDH release,Vero E6 cells; 75.00 µM,0.24%
same,%LDH release compared to maximum LDH release,Vero E6 cells; 100.00 µM,0.26%
